# Oligonucleotides are written 5' to 3', each unit as a sugar letter and its base; * is a phosphorothioate linkage, no mark a phosphodiester; rarer units and linkages stand in square brackets, end groups in braces. Plain capitals give the bases only. e = 2'-O-(2-methoxyethyl) (MOE); l = locked nucleic acid (LNA); [5mC] = 5-methylcytosine; d = 2'-deoxy (DNA)
# Test system: GRN mRNA
# Assay: GRN mRNA qPCR in SK-N-AS cells transfected with ASOs
# Format: cell-based, human
# Conditions: for hGRN mRNA FC / 120 nM FC (GRN mRNA): 120 nM
# Outline: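 Human neuroblastoma SK-N-AS cells transfected with ASOs at increasing concentrations (20 to 160 nM in initial titrations); GRN mRNA quantified by qPCR after 48 hours. Normalized to GAPDH and PPIA, fold change relative to steric non-targeting control ASO(s) (sNTC/CO-1589, with CO-3772 and CO-1929 in some series).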
# [1] = Table 11, SK-N-AS, 48 hours, normalized to CO-1589
# [2] = Table 9, SK-N-AS, 48 hours post-transfection, normalized to CO-1589
# [3] = Table 12, SK-N-AS, normalized to CO-1589
# [4] = Table 13, SK-N-AS, normalized to CO-1589
# [5] = Table 7, SK-N-AS, normalized to CO-1589 (sNTC1)
# [6] = Table 3, SK-N-AS, normalized to CO-3772 and CO-1589 (sNTC1)
# [7] = Table 10, SK-N-AS, 48 hours, normalized to CO-1589
substance,measurement,setting,value
CO-8877: hGRN regRNA-targeting ASO with additional chemical modifications (antisense eT*eA*lG*e[5mC]*eA*dA*dA*d[5mC]*dT*d[5mC]*d[5mC]*d[5mC]*d[5mC]*d[5mC]*dA*eG*eG*l[5mC]*eG*e[5mC]),GRN mRNA expression in SK-N-AS cells,"3.75 to 90 nM, 48 hours post-transfection, normalized to sNTC (FIGS. 26A, 26B)",dose-dependent increase
CO-6443: ASO designed to target an intragenic enhancer RNA (eRNA) (eG*e[5mC]*e[5mC]*e[5mC]*eT*eG*eA*e[5mC]*eA*e[5mC]*eG*e[5mC]*eA*e[5mC]*e[5mC]*eT*eT*eA*e[5mC]*eA),hGRN mRNA FC,[1],1.0 FC
CO-4647: ASO designed to target intergenic enhancers (eRNA) (antisense e[5mC]*eT*eA*eA*eG*e[5mC]*eG*eT*eT*eT*e[5mC]*eT*e[5mC]*eT*eA*eG*eT*e[5mC]*eA*eT),hGRN mRNA FC,[2],0.8 FC
CO-4601: ASO designed to target intergenic enhancers (eRNA) (antisense eG*eT*eA*eG*eG*e[5mC]*e[5mC]*eT*e[5mC]*eG*eA*e[5mC]*eT*eT*eT*eG*eA*e[5mC]*eG*eT),hGRN mRNA FC,[2],1.0 FC
CO-4632: ASO designed to target intergenic enhancers (eRNA) (antisense eT*eG*e[5mC]*eT*eA*eT*eG*e[5mC]*eA*eT*eT*eG*eA*eG*eT*eT*eT*eT*e[5mC]*e[5mC]),hGRN mRNA FC,[2],1.1 FC
CO-6381: ASO based on parent ASO CO-3462 (antisense eT*eG*eA*eT*e[5mC]*eA*eG*e[5mC]*eT*eT*eG*eG*eG*e[5mC]*eG*eA*e[5mC]*eT*eG*eA),30 nM FC (GRN mRNA),[3],0.8 FC
same,60 nM FC (GRN mRNA),[3],0.7 FC
same,120 nM FC (GRN mRNA),[3],1.0 FC
CO-6389: ASO based on parent ASO CO-3462 (antisense eT*eA*eG*lG*eA*dG*dA*lA*dT*d[5mC]*dG*l[5mC]*dT*dT*dT*lG*eG*eG*eA*eG),30 nM FC (GRN mRNA),[3],1.0 FC
same,60 nM FC (GRN mRNA),[3],1.0 FC
same,120 nM FC (GRN mRNA),[3],2.1 FC
"CO-6407: ASO based on parent ASO CO-3462 (antisense TAGGAGAATCGCTTTGGGAG; 2'-MOE, 5-methylC, mixed PO/PS; listed as RNA; modified_base 1..3: mod_base = OTHER; note = Phosphorothioate linkage; modified_base 6..15: mod_base = OTHER; modified_base 1..9: mod_base = OTHER; modified_base 18..20: mod_bas)",30 nM FC (GRN mRNA),[3],1.1 FC
same,60 nM FC (GRN mRNA),[3],1.2 FC
same,120 nM FC (GRN mRNA),[3],1.6 FC
CO-4625: ASO designed to target intergenic enhancers (eRNA) (antisense eT*e[5mC]*eT*eT*eG*eT*eT*eG*eT*eT*eG*eG*eA*eA*eA*eT*eT*e[5mC]*e[5mC]*e[5mC]),hGRN mRNA FC,[2],1.1 FC
CO-6418: ASO based on parent ASOs CO-4363 and CO-4364 (eG*eG*eA*e[5mC]*eT*lT*eG*eG*eG*eA*lG*eT*eG*eG*eT*lG*eA*e[5mC]*eT*eG*eA),30 nM FC (GRN mRNA),[4],1.6 FC
same,60 nM FC (GRN mRNA),[4],1.6 FC
same,120 nM FC (GRN mRNA),[4],1.9 FC
CO-4605: ASO designed to target intergenic enhancers (eRNA) (antisense e[5mC]*eG*eG*eG*eA*eG*eA*e[5mC]*eA*eG*eG*eA*eA*eG*eG*e[5mC]*eT*eT*eA*eA),hGRN mRNA FC,[2],1.2 FC
CO-6395: ASO based on parent ASO CO-3462 (antisense eT*eA*eG*eG*lA*eG*eA*eA*lT*e[5mC]*eG*e[5mC]*lT*eT*eT*eG*lG*eG*eA*eG),30 nM FC (GRN mRNA),[3],1.0 FC
same,60 nM FC (GRN mRNA),[3],1.3 FC
same,120 nM FC (GRN mRNA),[3],1.6 FC
CO-6434: ASO designed to target an intragenic enhancer RNA (eRNA) (eT*e[5mC]*e[5mC]*eG*eA*eT*e[5mC]*eA*e[5mC]*e[5mC]*eT*eG*e[5mC]*eA*e[5mC]*eT*eG*e[5mC]*eT*eG),hGRN mRNA FC,[1],0.9 FC
CO-4593: ASO designed to target intergenic enhancers (eRNA) (antisense eT*eT*eT*eT*eG*e[5mC]*e[5mC]*e[5mC]*eA*eG*e[5mC]*eG*e[5mC]*e[5mC]*e[5mC]*e[5mC]*eT*eT*eT*eA),hGRN mRNA FC,[2],0.8 FC
"CO-5267: CO-3423 with additional LNA tiling and PO bond modifications (antisense GGACTTGGGAGTGGTGACTG; 2'-MOE, mixed PS/PO, 5-methylcytosine; listed as RNA; modified_base 1..9: mod_base = OTHER; note = Phosphorothioate linkage; modified_base 17..20: mod_base = OTHER; modified_base 1..20: mod_base = OTHER; note = 2'-O-(2-methoxyethyl) ribonucleotide; modified_base 4)",7.5 nM FC (GRN mRNA),[5],1.0 FC
same,13 nM FC (GRN mRNA),"Table 7, SK-N-AS, 13 nM, normalized to CO-1589 (sNTC1)",1.0 FC
same,30 nM FC (GRN mRNA),[5],1.2 FC
same,60 nM FC (GRN mRNA),[5],1.7 FC
same,120 nM FC (GRN mRNA),[5],1.9 FC
same,150 nM FC (GRN mRNA),"Table 7, SK-N-AS, 150 nM, normalized to CO-1589 (sNTC1)",2.3 FC
CO-4627: ASO designed to target intergenic enhancers (eRNA) (antisense eA*e[5mC]*eT*e[5mC]*eA*eA*eT*eG*e[5mC]*eA*eT*eA*eG*e[5mC]*eA*eG*eA*eA*eT*eA),hGRN mRNA FC,[2],1.3 FC
CO-4612: ASO designed to target intergenic enhancers (eRNA) (antisense eA*eT*eG*eG*e[5mC]*eT*eA*eA*eA*eA*e[5mC]*eT*eA*e[5mC]*e[5mC]*eT*eT*e[5mC]*e[5mC]*eA),hGRN mRNA FC,[2],1.0 FC
CO-6519: ASO based on parent ASO CO-3462 (antisense eT*eA*eG*eG*eA*eGeAeAeTe[5mC]eGe[5mC]eTeTeTeGeGeG*eA*eG),30 nM FC (GRN mRNA),[3],1.1 FC
same,60 nM FC (GRN mRNA),[3],1.0 FC
same,120 nM FC (GRN mRNA),[3],0.9 FC
CO-4618: ASO designed to target intergenic enhancers (eRNA) (antisense eA*eT*eA*eG*eG*eT*e[5mC]*eA*eG*eG*eG*eA*eA*eT*eG*e[5mC]*e[5mC]*eG*e[5mC]*e[5mC]),hGRN mRNA FC,[2],1.3 FC
CO-4598: ASO designed to target intergenic enhancers (eRNA) (antisense eG*eT*eG*e[5mC]*eA*eA*eT*e[5mC]*eT*eG*eT*eG*eA*e[5mC]*e[5mC]*eT*eG*eT*eA*eA),hGRN mRNA FC,[2],1.1 FC
CO-4603: ASO designed to target intergenic enhancers (eRNA) (antisense e[5mC]*e[5mC]*eA*e[5mC]*eT*eT*e[5mC]*eG*e[5mC]*eG*eT*eT*eT*eA*eG*eA*eA*e[5mC]*eT*eT),hGRN mRNA FC,[2],1.3 FC
CO-4357: LNA/PS modified ASO based on CO-3423 (antisense eG*eG*eA*e[5mC]*lT*eT*eG*eG*lG*eA*eG*eT*lG*eG*eT*eG*lA*e[5mC]*eT*eG),30 nM FC (GRN mRNA),[6],1.5 FC
same,60 nM FC (GRN mRNA),[6],1.7 FC
same,120 nM FC (GRN mRNA),[6],2.4 FC
CO-6427: ASO based on parent ASOs CO-4363 and CO-4364 (eG*eG*eG*eA*e[5mC]*eT*eT*eG*eG*eG*eA*eG*eT*eG*eG*eT*eG*eA*e[5mC]*eT*eG*eA*eA*e[5mC]*e[5mC]),30 nM FC (GRN mRNA),[4],1.2 FC
same,60 nM FC (GRN mRNA),[4],1.1 FC
same,120 nM FC (GRN mRNA),[4],1.2 FC
CO-4604: ASO designed to target intergenic enhancers (eRNA) (antisense eT*e[5mC]*eT*e[5mC]*e[5mC]*eG*eA*eT*e[5mC]*e[5mC]*e[5mC]*eG*e[5mC]*eT*eT*eG*eT*e[5mC]*eA*eG),hGRN mRNA FC,[2],1.2 FC
CO-4649: ASO designed to target intergenic enhancers (eRNA) (antisense eT*eG*eG*eG*eA*e[5mC]*eA*eG*e[5mC]*eG*eT*eG*eG*eA*eT*eT*eA*eA*eT*eA),hit identification (GRN mRNA dose escalation),"SK-N-AS, 3.75 nM to 120 nM, 48 hours",initial hits
same,hGRN mRNA FC,[2],1.2 FC
same,3.75 nM FC (GRN mRNA),"Table 10, SK-N-AS, 3.75 nM, 48 hours, normalized to CO-1589",1.2 FC
same,7.5 nM FC (GRN mRNA),[7],1.2 FC
same,15 nM FC (GRN mRNA),"Table 10, SK-N-AS, 15 nM, 48 hours, normalized to CO-1589",1.3 FC
same,30 nM FC (GRN mRNA),[7],1.2 FC
same,60 nM FC (GRN mRNA),[7],1.2 FC
same,120 nM FC (GRN mRNA),[7],1.3 FC
CO-4641: ASO designed to target intergenic enhancers (eRNA) (antisense e[5mC]*eG*eT*eT*e[5mC]*e[5mC]*eA*eA*eA*e[5mC]*eA*eG*e[5mC]*eA*eG*e[5mC]*eG*eT*eT*eA),hGRN mRNA FC,[2],0.9 FC
CO-6394: ASO based on parent ASO CO-3462 (antisense eT*eA*lG*eG*eA*lG*eA*eA*lT*e[5mC]*eG*l[5mC]*eT*eT*lT*eG*eG*lG*eA*eG),30 nM FC (GRN mRNA),[3],1.1 FC
same,60 nM FC (GRN mRNA),[3],0.9 FC
same,120 nM FC (GRN mRNA),[3],1.3 FC
